≈ marks a conversion by molar mass, not a printed value. Calls of active or inactive are those of the source. The rule behind the calls is not given here.
What was measured:
Hepatocyte [1] = experiment: Anti-inflammatory activity in CCl4-stimulated mouse primary hepatocytes assessed as reduction in IL-6 mRNA level at 1 uM; type: functional, cell-based
[2] = Solubility in […] incubated for 10 mins; type: physicochemical
Mus musculus [3] = experiment: Anti-MASH activity in HFD-fed CCl4-treated male C57BL/6 mouse assessed as reduction in fat dyslipidemia at 150 mg/kg, po qd treated for 4 weeks; type: functional, organism-based
Rattus norvegicus [4] = experiment: (§1) Hepatoprotective activity in male Sprague-Dawley rat model of CCl4-induced ALI assessed as reduction in vacuoles at 100 mg/kg, IG qd pretreated with compound for 7 days followed by CCl4 administration after 2 hrs post-compound treatment measured after 16 hrs post-CCl4 injection by H and E staining based analysis; type: functional, organism-based; settings: time 186.0 hrs
Rattus norvegicus [5] = experiment: Hepatoprotective activity in male Sprague-Dawley rat model of CCl4-induced ALI assessed as restoration of SOD level at 100 mg/kg, IG qd pretreated with compound for 7 days followed by CCl4 administration after 2 hrs post-compound treatment measured after 16 hrs post-CCl4 injection; type: functional, organism-based; settings: time 186.0 hrs
L02 [6] = experiment: Anti-MASH activity in CCl4-stimulated human LO2 cells assessed as increase in cell viability up to 10 uM incubated for 24 hrs by MTT assay; type: functional, cell-based
[7] = Antioxidant activity assessed as inhibition of DPPH free radical scavenging activity incubated for 30 mins under dark condition; type: functional
L02 [8] = experiment: Anti-inflammatory activity in CCl4-stimulated human LO2 cells assessed as reduction in TNF-alpha mRNA level at 1 uM; type: functional, cell-based
Mus musculus [9] = experiment: Anti-MASH activity in HFD-fed CCl4-treated male C57BL/6 mouse assessed as reduction in serum triglyceride level at 150 mg/kg, po qd treated for 4 weeks; type: functional, organism-based
Mus musculus [10] = experiment: Anti-MASH activity in HFD-fed CCl4-treated male C57BL/6 mouse assessed as decrease in liver MDA level at 150 mg/kg, po qd treated for 4 weeks; type: functional, organism-based
[11] = Antioxidant activity assessed as clearing rate incubated for 30 mins under dark condition by DPPH free radical scavenging assay; type: functional
L02 [12] = experiment: Anti-inflammatory activity in CCl4-stimulated human LO2 cells assessed as reduction in IL-6 mRNA level at 1 uM; type: functional, cell-based
Mus musculus [13] = experiment: Anti-MASH activity in HFD-fed CCl4-treated male C57BL/6 mouse assessed as reduction in hepatic triglyceride level at 150 mg/kg, po qd treated for 4 weeks by ELISA; type: functional, organism-based
Mus musculus [14] = experiment: Anti-MASH activity in HFD-fed CCl4-treated male C57BL/6 mouse assessed as reduction in inflammation in liver at 150 mg/kg, po qd treated for 4 weeks by H and E/Oil red O staining based analysis; type: functional, organism-based
Hepatocyte [15] = experiment: Anti-MASH activity in palmitate/oleate-stimulated mouse primary hepatocytes assessed as reduction in triglyceride level; type: functional, cell-based
Mus musculus [16] = experiment: Anti-MASH activity in HFD-fed CCl4-treated male C57BL/6 mouse assessed as reduction in hepatocyte ballooning in liver at 150 mg/kg, po qd treated for 4 weeks by H and E/Oil red O staining based analysis; type: functional, organism-based
Rattus norvegicus [17] = experiment: Hepatoprotective activity in male Sprague-Dawley rat model of CCl4-induced ALI assessed as reduction in yellowing of liver at 100 mg/kg, IG qd pretreated with compound for 7 days followed by CCl4 administration after 2 hrs post-compound treatment measured after 16 hrs post-CCl4 injection; type: functional, organism-based; settings: time 186.0 hrs
[18] = Solubility in water incubated for 10 mins; type: physicochemical
[19] = Acute toxicity in male KM mouse assessed as abnormalities in animal at 2 g/kg, po administered as single dose measured after 2 weeks; type: organism-based; settings: in vivo, 2000 mg/kg, 336 h
[20] = Solubility in methanol incubated for 10 mins; type: physicochemical
L02 [21] = experiment: Anti-MASH activity in palmitate/oleate-stimulated human LO2 cells assessed as reduction in lipid accumulation at 10 to 40 uM incubated for 24 hrs by Oil Red O staining assay; type: functional, cell-based; settings: dose 10-40 µM
[22] = Toxicity in male Sprague-Dawley rat model of CCl4-induced ALI assessed as animal growth at 100 mg/kg, IG qd pretreated with compound for 7 days followed by CCl4 administration after 2 hrs post-compound treatment measured after 16 hrs post-CCl4 injection; type: organism-based; settings: in vivo, po, 186 h
Mus musculus [23] = experiment: Anti-MASH activity in HFD-fed CCl4-treated male C57BL/6 mouse assessed as restoration of serum AST level at 150 mg/kg, po qd treated for 4 weeks; type: functional, organism-based
Rattus norvegicus [24] = experiment: as §1, with “acute fat deposition” for “vacuoles”, “oil red O” for “H and E”; type: functional, organism-based; settings: time 186.0 hrs
Rattus norvegicus [25] = experiment: Hepatoprotective activity in male Sprague-Dawley rat model of CCl4-induced ALI assessed as reduction in white granular fat in liver at 100 mg/kg, IG qd pretreated with compound for 7 days followed by CCl4 administration after 2 hrs post-compound treatment measured after 16 hrs post-CCl4 injection; type: functional, organism-based; settings: time 186.0 hrs
[26] = AUC (0 to infinity) in overnight-fasted male Sprague-Dawley rat at 150 mg/kg, po measured up to 12 hrs by HPLC analysis; type: ADME, organism-based; settings: in vivo
Rattus norvegicus [27] = experiment: Hepatoprotective activity in male Sprague-Dawley rat model of CCl4-induced ALI assessed as restoration of serum LDH level at 100 mg/kg, IG qd pretreated with compound for 7 days followed by CCl4 administration after 2 hrs post-compound treatment measured after 16 hrs post-CCl4 injection; type: functional, organism-based; settings: time 186.0 hrs
[28] = Terminal half life in overnight-fasted male Sprague-Dawley rat at 150 mg/kg, po measured up to 12 hrs by HPLC analysis; type: ADME, organism-based; settings: in vivo, read-out: beta t1/2 (converted)
Mus musculus [29] = experiment: Anti-MASH activity in HFD-fed CCl4-treated male C57BL/6 mouse assessed as reduction in serum HDL cholesterol level at 150 mg/kg, po qd treated for 4 weeks; type: functional, organism-based
Hepatocyte [30] = experiment: Anti-MASH activity in palmitate/oleate-stimulated mouse primary hepatocytes assessed as reduction in lipid accumulation by Oil Red O staining assay; type: functional, cell-based
Hepatocyte [31] = experiment: Anti-MASH activity in palmitate/oleate-stimulated mouse primary hepatocytes assessed as reduction in ACACA mRNA level by q-PCR analysis; type: functional, cell-based
Mus musculus [32] = experiment: Anti-MASH activity in HFD-fed CCl4-treated male C57BL/6 mouse assessed as restoration of liver SOD level at 150 mg/kg, po qd treated for 4 weeks; type: functional, organism-based
[33] = Tmax in overnight-fasted male Sprague-Dawley rat at 150 mg/kg, po measured up to 12 hrs by HPLC analysis; type: ADME, organism-based; settings: in vivo
[34] = Toxicity in HFD-fed CCl4-treated male C57BL/6 mouse assessed as body weight loss at 150 mg/kg, po qd treated for 4 weeks; type: organism-based; settings: in vivo, 672 h
[35] = Acute toxicity in male KM mouse assessed as animal suvival at 2 g/kg, po administered as single dose measured after 2 weeks; type: organism-based; settings: in vivo, 2000 mg/kg, 336 h
[36] = Solubility in ethyl acetate incubated for 10 mins; type: physicochemical
[37] = Antioxidant activity assessed as inhibition of superoxide anion scavenging activity incubated for 5 mins in presence of pyrogallol; type: functional

COc1cc([C@@H]2Oc3cc([C@H]4Oc5cc(O)cc(O)c5C(=O)[C@@H]4O)ccc3OC2CS)ccc1O (some centres not stated)
Activity (Hepatocyte [1]): Active
solubility [2]: > 1000 mg/mL
Activity (Mus musculus [3]): Active
Activity (Rattus norvegicus [4]): Active
Activity (Rattus norvegicus [5]): Active; Exhibited Better Efficacy Than Silybin
Activity (L02 [6]): Active
IC50 [7]: 33.4 µM
Activity (L02 [8]): Active
Activity (Mus musculus [9]): Active
Activity (Mus musculus [10]): Active; Compound Was More Significant Than Silybin
Activity [11]: 92.9%
Activity (L02 [12]): Active
Activity (Mus musculus [13]): Active; Activity Was More Significant Than Silybin
Activity (Mus musculus [14]): Active; Activity Was Better Than Silybin
Activity (Hepatocyte [15]): Active
Activity (Mus musculus [16]): Active; Activity Was Better Than Silybin
Activity (Rattus norvegicus [17]): Active
solubility at 10 min [18]: 0.25 mg/mL (≈ 0.501 mM)
Activity [19]: Non-toxic
solubility [20]: 913 mg/mL (≈ 1830 mM)
Activity (L02 [21]): Active
Activity [22]: Non-toxic
Activity (Mus musculus [23]): Active; Activity Was Better Than Silybin
Activity (Rattus norvegicus [24]): Active
Activity (Rattus norvegicus [25]): Active
AUC(0-inf) [26]: 11600 ng·h/mL
Activity (Rattus norvegicus [27]): Active
half-life [28]: 1.55 h
Activity (Mus musculus [29]): Active
Activity (Hepatocyte [30]): Active
Activity (Hepatocyte [31]): Active
Activity (Mus musculus [32]): Active
Tmax [33]: 1.99 h
Activity [34]: Non-toxic
Activity [35]: Non-toxic
solubility [36]: > 1000 mg/mL
IC50 [37]: 28.1 µM
